Test results reported in patent publication EP0830136B1, “NEW CRY[…] […]” (priority 1995, dated 1996).
Entries after “also recorded” stand apart in the source; their conditions may differ.

Columns and labels:
[1] = pH 11 / hydrolysis
[2] = tested on: tumors implanted in mice
[3] = tested on: human tumor cell lines KB and LoVo; experiment: In vitro cytotoxicity, KB and LoVo; details: read-out: cytotoxicities IC50's
[4] = tested on: SKOV3 cells; experiment: Cell proliferation assay (SRB staining), SKOV3; type: cell-based, Human; details: 24 hours with IC50 doses
[5] = tested on: SKVLB1 cells; experiment: cells; type: cell-based; details: Homo sapiens, SKVLB1, 48 h, read-out: SKVLB1 IC50 (nM)
Protocol: The Jurkat T cell leukemia line and A-10 rat aortic smooth muscle cells were obtained from the American Type Culture Collection and were cultured in BME containing 10% FBS and 50µg/mL gentamycin sulfate. […] Both cell lines were maintained in BME containing 10% FBS and 50µg/mL gentamycin sulfate.
Cell proliferation assays were performed as described by Skehan et al.^11 For Jurkat cells, cultures were treated with the indicated drugs as described in Skehan^11 and total cell numbers were determined by counting the cells in a hemacytometer. The percentage of cells in mitosis was determined by staining with 0.4% Giemsa in PBS followed by three rapid washes with PBS. At least 1000 cells per treatment were scored for the presence of mitotic figures and the mitotic index was calculated as the ratio of cells with mitotic figures to the total number of cells counted.

[6] = tested on: Jurkat T cell leukemia line; experiment: Jurkat cell proliferation and mitotic index; type: cell-based; details: Homo sapiens; Jurkat cells, 24 hours; read-out: IC50s for inhibition of cell proliferation and accumulation of cells in mitosis
[7] = tested on: A-10 rat aortic smooth muscle cells; experiment: Immunofluorescence of cytoskeleton in A-10 cells; type: cell-based
Protocol: A-10 cells were grown to near-confluency on glass coverslips in BME/10% FBS. Compounds in PBS were added to the indicated final concentrations and cells were incubated for an additional 24 hours. For the staining of microtubules and intermediate filaments, the cells were fixed with cold methanol and incubated with PBS containing 10% calf serum to block nonspecific binding sites. Cells were then incubated at 37°C for 60 min with either monoclonal anti-β-tubulin or with monoclonal anti-vimentin at dilutions recommended by the manufacturer. Bound primary antibodies were subsequently visualized by a 45-minute incubation with fluorescein-conjugated rabbit antimouse IgG. The coverslips were mounted on microscope slides and the fluorescence patterns were examined and photographed using a Zeiss Photomicroscope ill equipped with epifluorescence optics for fluorescein. […] PBS containing 100nM TRITC-phalloidin was then added and the mixture was allowed to incubate for 45 min at 37° C. The cells were washed rapidly three times with PBS before the coverslips were mounted and immediately photographed as described above.

[8] = A-10 cells, 24 hours, 2µM cytochalasin B, 100nM vinblastine or 10nM cryptophycin compounds

SMILES	stability of the C-D ester bond [1]	total dosage required in vivo relative to comparator ([2]; mouse, in vivo)	in vivo antitumor activity ([2]; statement in words)	IC50 [3]	increase in cell number during treatment [4]	increase in cell numbers in the 24 hours following removal of the drug ([4]; then drug-free medium)	IC50 [5]	IC50 [6]	microtubule depolymerization after taxol pretreatment [7]	microtubule repolymerization 1 hour after removal of drug ([7]; A-10 cells, 100nM vinblastine or 10nM cryptophycins for 24 hr, then drug-free medium 1 hour)	microtubule repolymerization 24 hours after removal of drug ([7]; A-10 cells, 100nM vinblastine or 10nM cryptophycins for 24 hr, then drug-free medium 24 hours)	effect on microfilaments [7, 8]	effect on microtubules [7, 8]	effect on vimentin intermediate filaments [7, 8]
COc1ccc(C[C@H]2NC(=O)/C=C/C[C@@H]([C@H](C)[C@H]3O[C@@H]3c3ccccc3)OC(=O)[C@H](CC(C)C)OC(=O)C(C)(C)CNC2=O)cc1Cl [Cryptophycin 52]	stable at pH 11	roughly three times the total dosage compared with Cryptophycin 1	active in vivo	0.043 to 0.07 nM	–	–	–	–	–	–	–	–	–	–
CC[C@]1(O)C[C@@H]2CN(CCc3c([nH]c4ccccc34)[C@@](C(=O)OC)(c3cc4c(cc3OC)N(C)[C@H]3[C@@](O)(C(=O)OC)[C@H](OC(C)=O)[C@]5(CC)C=CCN6CC[C@]43[C@@H]65)C2)C1 [vinblastine]	–	–	–	–	25%	approximately 3 fold	4200 nM	8 nM	pretreatment with taxol prevented microtubule depolymerization	significant levels of microtubules	complete morphological recovery	Neither compound affected microfilawent organization	marked depletion of microtubules; also recorded: complete depolymerization of microtubules; also recorded: complete microtubule depolymerization	collapsed, forming concentric rings around the nuclei
